Experimental data as given in patent US20190085024A1, “Alpha-Ketoamide Inhibitors Of Cysteine Proteases” (Phelix Therapeutics, priority 2017, published 2019).
*1 amine or outer side, *2 acyl side, *3 side chain or, on linkers, in order; H or OH if unused. Where a SMILES comes first, the peptide text is derived from it. [ ]: non-standard residue; d: D form. The star is where a group is joined. 2Nal = N[CH](Cc1ccc2ccccc2c1)C(=O)O; X2 = C=CCOCC(N[*:1])C(=O)C(=O)[*:2]; Ser(allyl) = C=CCOC[CH](N)C(=O)O; PhAc = O=C(Cc1ccccc1)*; Allyl = C=CC*

Tests used:
[1] = target: Cathepsin L (Homo sapiens, UniProt P07711); assay: Cathepsin L enzyme assay; format: biochemical; settings: Ki by Morrison equation; pH 5.5, substrate Z-Phe-Arg-Amc; read-out: Cat L
Excerpt: Two wells contained DMSO only for controls.
Velocity was converted to μM/sec.

[2] = target: Calpain; assay: Calpain enzyme assay; format: biochemical; settings: Ki by Morrison equation; pH 7.5, 5 mM CaCl2
[3] = tested on: EBOV WT (Ebola Wild Type); assay: microbe, parasite or virus in culture; format: cell-based; settings: Zaire ebolavirus, read-out: EBOV WT (μM) (Ebola Wild Type)
[4] = target: Cathepsin B (Homo sapiens, UniProt P07858); assay: Cathepsin B enzyme assay; settings: Cat B (μM), Ki by Morrison equation; pH 6.0, substrate Z-Phe-Arg-Amc
[5] = tested on: MERS WT; assay: microbe, parasite or virus in culture; format: cell-based; settings: Middle East respiratory syndrome-related coronavirus, read-out: MERS WT (μM)
[6] = target: Cat S (Homo sapiens, UniProt P25774); assay: Cat S inhibition; format: biochemical
[7] = target: T1, Cat K (Homo sapiens, UniProt P43235); assay: Cat K inhibition; format: biochemical
T1 sequence (P43235 115-329): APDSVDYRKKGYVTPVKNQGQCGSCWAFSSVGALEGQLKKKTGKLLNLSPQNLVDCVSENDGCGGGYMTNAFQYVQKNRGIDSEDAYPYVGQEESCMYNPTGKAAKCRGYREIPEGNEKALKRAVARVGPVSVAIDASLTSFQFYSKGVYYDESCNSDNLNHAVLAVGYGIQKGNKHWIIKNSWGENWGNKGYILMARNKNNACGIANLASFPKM

Cat S, sequence (P25774 115-331): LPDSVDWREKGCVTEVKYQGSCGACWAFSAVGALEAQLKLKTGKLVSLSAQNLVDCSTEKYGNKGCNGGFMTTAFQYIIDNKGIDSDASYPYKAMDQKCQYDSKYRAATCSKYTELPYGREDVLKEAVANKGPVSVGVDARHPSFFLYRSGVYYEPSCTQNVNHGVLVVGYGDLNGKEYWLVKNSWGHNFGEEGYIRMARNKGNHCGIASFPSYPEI
Cathepsin L, sequence (P07711 114-333, species assumed): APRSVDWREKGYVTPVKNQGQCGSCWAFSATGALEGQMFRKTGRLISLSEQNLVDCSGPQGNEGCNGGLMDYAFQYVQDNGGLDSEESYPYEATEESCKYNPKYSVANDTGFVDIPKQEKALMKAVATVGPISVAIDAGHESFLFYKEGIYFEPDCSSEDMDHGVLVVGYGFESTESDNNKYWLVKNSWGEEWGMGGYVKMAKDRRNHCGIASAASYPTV

SMILES	Ki [1]	Ki [2]	IC50 [3]	Ki [4]	IC50 [5]	Ki [6]	Ki [7]
CC(C)CC(NC(=O)OCc1ccccc1)C(=O)NC(C)C(=O)C(=O)NCCC(=O)NC(Cc1cccc(C#N)c1)C(N)=O (centres unmarked) [PHELIX185, benzyl (1-((4-((3-((1-amino-3-(3-cyanophenyl)-1-oxopropan-2-yl)amino)-3-oxopropyl)amino)-3,4-dioxobutan-2-yl)amino)-4-methyl-1-oxopentan-2-yl)carbamate]	102 nM	68.4 nM	13.3 µM	2.1 µM	> 10 µM		
CC(C)CC(NC(=O)OCc1ccccc1)C(=O)NC(C)C(=O)C(=O)N1CCC(C(=O)NC(Cc2ccccc2)C(N)=O)CC1 (centres unmarked) [PHELIX186, benzyl (1-((4-(4-((1-amino-1-oxo-3-phenylpropan-2-yl)carbamoyl)piperidin-1-yl)-3,4-dioxobutan-2-yl)amino)-4-methyl-1-oxopentan-2-yl)carbamate]	4320 nM	18100 nM	57.5 µM	60 µM	> 10 µM		
CC(C)CC(NC(=O)OCc1ccccc1)C(=O)NC(C)C(=O)C(=O)NC(Cc1ccncc1)C(N)=O (centres unmarked) [PHELIX198, benzyl (1-((4-((1-amino-1-oxo-3-(pyridin-4-yl)propan-2-yl)amino)-3,4-dioxobutan-2-yl)amino)-4-methyl-1-oxopentan-2-yl)carbamate]	33.9 nM	22 nM	4.03 µM	7.3 µM	> 10 µM		
C=CCOCC(NC(=O)Cc1ccccc1)C(=O)NC(CC(C)C)C(=O)NC(COCC=C)C(=O)C(=O)NCC(=O)NC(Cc1ccc2ccccc2c1)C(N)=O (centres unmarked) [PHELIX200, 2-(3-(allyloxy)-2-(2-phenylacetamido)propanamido)-N-(1-(allyloxy)-4-((2-((1-amino-3-(naphthalen-2-yl)-1-oxopropan-2-yl)amino)-2-oxoethyl)amino)-3,4-dioxobutan-2-yl)-4-methylpentanamide] (PhAc-[Ser(allyl)]L[X2]G[2Nal]-NH2; configuration not given here)	1.51 nM	6.57 nM	6.4 µM	0.0881 µM	> 10 µM		
C=CCOCC(NC(=O)C(CC(C)C)NC(=O)C(Cc1ccc(OCC=C)cc1)NC(=O)Cc1ccccc1)C(=O)C(=O)NCC(=O)NC(Cc1ccc2ccccc2c1)C(N)=O (centres unmarked) [PHELIX202, N-(1-(allyloxy)-4-((2-((1-amino-3-(naphthalen-2-yl)-1-oxopropan-2-yl)amino)-2-oxoethyl)amino)-3,4-dioxobutan-2-yl)-2-(3-(4-(allyloxy)phenyl)-2-(2-phenylacetamido)propanamido)-4-methylpentanamide] (PhAc-Y(Allyl)L[X2]G[2Nal]-NH2; configuration not given here)	24 nM	25.3 nM	> 10 µM	0.692 µM	> 10 µM		
CC(NC(=O)C(Cc1cccc2ccccc12)NC(=O)Cc1ccccc1)C(=O)C(=O)NC(Cc1ccccc1)C(=O)NC(C)(C)C(N)=O (centres unmarked) [PHELIX205, N-(1-((1-amino-2-methyl-1-oxopropan-2-yl)amino)-1-oxo-3-phenylpropan-2-yl)-3-(3-(napthalen-1-yl)-2-(2-phenylacetamido)propanamido)-2-oxobutanamide]	70.4 nM	12500 nM	21.9 µM	0.977 µM	> 10 µM	229 nM	6410 nM
CC(NC(=O)C(Cc1cccnc1)NC(=O)Cc1ccccc1)C(=O)C(=O)NC(Cc1ccccc1)C(=O)NC(C)(C)C(N)=O (centres unmarked) [PHELIX211, N-(1-((1-amino-2-methyl-1-oxopropan-2-yl)amino)-1-oxo-3-phenylpropan-2-yl)-2-oxo-3-(2-(2-phenylacetamido)-3-(pyridin-3-yl)propanamido)butanamide]	218 nM	> 10000 nM	209 µM	0.532 µM	> 10 µM		
CC(NC(=O)[C@H](Cc1ccccn1)NC(=O)Cc1ccccc1)C(=O)C(=O)N[C@@H](Cc1ccccc1)C(=O)N[C@@H](Cc1ccccc1)C(N)=O (some centres unmarked) [PHELIX219, N-(1-((1-amino-1-oxo-3-phenylpropan-2-yl)amino)-1-oxo-3-phenylpropan-2-yl)-2-oxo-3-(2-(2-phenylacetamido)-3-(pyridin-2-yl)propanamido)butanamide]	2910 nM	> 10000 nM	> 10 µM	7.52 µM	> 10 µM		
CC(NC(=O)C(Cc1ccccc1)NC(=O)c1ccccc1F)C(=O)C(=O)NC(Cc1ccccc1)C(=O)NC(C)(C)C(N)=O (centres unmarked) [PHELIX224, N-(1-((4-((1-((1-amino-2-methyl-1-oxopropan-2-yl)amino)-1-oxo-3-phenylpropan-2-yl)amino)-3,4-dioxobutan-2-yl)amino)-1-oxo-3-phenylpropan-2-yl)-2-fluorobenzamide]	45.7 nM	> 10000 nM	11 µM	0.422 µM	> 10 µM	33.2 nM	
Cc1ccccc1CC(=O)NC(Cc1ccccc1)C(=O)NC(C)C(=O)C(=O)NC(Cc1ccccc1)C(=O)NC(C)(C)C(N)=O (centres unmarked) [PHELIX226, N-(1-((1-amino-2-methyl-1-oxopropan-2-yl)amino)-1-oxo-3-phenylpropan-2-yl)-2-oxo-3-(3-phenyl-2-(2-(o-tolyl)acetamido)propanamido)butanamide]	9.54 nM	> 10000 nM	5.09 µM	0.273 µM	114 µM		1770 nM
CC(NC(=O)C(Cc1ccccc1)NC(=O)Cc1ccccc1)C(=O)C(=O)NC(Cc1ccccc1)C(=O)NC(C)(C)C(=O)NCCc1ccccc1 (centres unmarked) [PHELIX230, N-(1-((2-methyl-1-oxo-1-(phenethylamino)propan-2-yl)amino)-1-oxo-3-phenylpropan-2-yl)-2-oxo-3-(3-phenyl-2-(2-phenylacetamido)propanamido)butanamide]	6.78 nM	> 10000 nM		0.236 µM		11.5 nM	310 nM
CC(NC(=O)C(Cc1ccccc1)NC(=O)Cc1ccccc1)C(=O)C(=O)NC(Cc1ccccc1)C(=O)NC(C)(C)C(=O)NCCN1CCOCC1 (centres unmarked) [PHELIX231, N-(1-((2-methyl-1-((2-morpholinoethyl)amino)-1-oxopropan-2-yl)amino)-1-oxo-3-phenylpropan-2-yl)-2-oxo-3-(3-phenyl-2-(2-phenylacetamido)propanamido)butanamide]	13.7 nM	3790 nM		2.3 µM		200 nM	4890 nM
CC(NC(=O)C(Cc1ccccc1)NC(=O)Cc1ccccc1)C(=O)C(=O)NC(Cc1cc2ccccc2[nH]1)C(=O)NC(C)(C)C(N)=O (centres unmarked) [PHELIX232, N-(1-((1-amino-2-methyl-1-oxopropan-2-yl)amino)-3-(1H-indol-2-yl)-1-oxopropan-2-yl)-2-oxo-3-(3-phenyl-2-(2-phenylacetamido)propanamido)butanamide]	213 nM	> 10000 nM		19.9 µM		147 nM	1840 nM
CCC(C)C(NC(=O)C(Cc1ccccc1)NC(=O)Cc1ccccc1)C(=O)C(=O)NC(Cc1ccccc1)C(=O)NC(C)(C)C(N)=O (centres unmarked) [PHELIX233, N-(1-((1-amino-2-methyl-1-oxopropan-2-yl)amino)-1-oxo-3-phenylpropan-2-yl)-4-methyl-2-oxo-3-(3-phenyl-2-(2-phenylacetamido)propanamido)hexanamide]	8.09 nM	> 10000 nM		0.223 µM		2.55 nM	354 nM
CC(NC(=O)C(Cc1ccccc1)NC(=O)Cc1ccccc1)C(=O)C(=O)NC(CCCNC(=N)N)C(=O)NC(C)(C)C(N)=O (centres unmarked) [PHELIX234, N-(1-amino-2-methyl-1-oxopropan-2-yl)-5-guanidino-2-(2-oxo-3-(3-phenyl-2-(2-phenylacetamido)propanamido)butanamido)pentanamide]	129 nM	> 10000 nM		> 10 µM		78.1 nM	1080 nM
CC(NC(=O)[C@H](Cc1ccccc1)NC(=O)C(c1ccccc1)c1ccccc1)C(=O)C(=O)N[C@@H](Cc1ccccc1)C(=O)NC(C)(C)C(N)=O (stereo partly drawn) [PHELIX237, N-((S)-1-((1-amino-2-methyl-1-oxopropan-2-yl)amino)-1-oxo-3-phenylpropan-2-yl)-3-((S)-2-(2,2-diphenylacetamido)-3-phenylpropanamido)-2-oxobutanamide]	3.36 nM	> 10000 nM		0.0211 µM		0.8 nM	226 nM
CC(C)CC(NC(=O)OCc1ccccc1)C(=O)NC(C)C(=O)C(=O)NCC(=O)NC(Cc1ccccc1)C(=O)NCCc1ccccc1 (centres unmarked) [PHELIX238, benzyl (5-benzyl-12,17-dimethyl-4,7,10,11,14-pentaoxo-1-phenyl-3,6,9,13-tetraazaoctadecan-15-yl)carbamate]	3.88 nM	91.1 nM		0.313 µM		20.3 nM	27.7 nM
CC(NC(=O)C(Cc1ccccc1)NC(=O)Cc1ccccc1)C(=O)C(=O)NC(Cc1ccccc1)C(=O)NC(C)(C)C(N)=O (centres unmarked) [PHELIX249, N-(1-((1-amino-2-methyl-1-oxopropan-2-yl)amino)-1-oxo-3-phenylpropan-2-yl)-2-oxo-3-(3-phenyl-2-(2-phenylacetamido)propanamido)butanamide]	101 nM	> 10000 nM		0.349 µM	> 30 µM	6.81 nM	736 nM
